Test results published in patent US10335409B2 (priority 2012, dated 2019).
Like-named read-outs stand apart in the source and are kept apart here.

Tests used:
Assay type in all cases: cell-based, hepatitis C virus
[1] = test system: genotype 2a (JFH-1) stable HCV replicon in Huh-7-derived cells; assay: Stable subgenomic HCV replicon EC50, genotype 2a (Renilla luciferase); settings: Hepatitis C virus, stable replicon genotype 2a, 72 h, read-out: EC50 2A RLUC
Description: (§1) Antiviral potency (EC50) was determined in both stable subgenomic HCV replicon cell lines and transient-transfected HCV replicon cells. The term half maximal effective concentration (EC50) refers to the concentration of a drug which induces a response halfway between the baseline and maximum after the exposure time specified below.
(§2) Stable subgenomic HCV replicons for genotype 1a, 1b, 2a, 3a, and 4a were established in Huh-7-derived cells as described by Lohmann et al (Lohmann V, Korner F, Koch J, et al Replication of subgenomic hepatitis C virus RNAs in a hepatoma cell line. Science 1999; 285:119-3) Each stable cell line contains a bicistronic HCV replicon that encodes a humanized Renilla luciferase (hRLuc) reporter gene fused to a selectable neomycin-resistance gene, followed by an EMCV IRES and the NS3-NS5B coding region of HCV. […] Luciferase activity was measured as a marker for intracellular HCV replication levels.
(§3) The genotype 1a stable replicon was derived from the H77 HCV strain and contained adaptive mutations P1496L and S2204I. The genotype 1b stable replicon was derived from the Con1 HCV strain and contained adaptive mutations E1202G, T1280I and K1846T. […] The genotype 3a stable replicon was derived from the S52 HCV strain and contained adaptive mutations P1121L, A1198T and S2210I (equivalent to S2204I in genotype 1). The genotype 4a stable replicon was derived from the ED43 HCV strain and contained adaptive mutations Q1691R and S2204I. All replicon cell lines were propagated in Huh-7-derived cells and maintained in Dulbecco's modified Eagle's Medium (DMEM) supplemented with 10% fetal bovine serum (FBS) and 0.5 mg/mL G418.
(§4) To perform EC50 assays, cells from each HCV replicon were dispensed into 384-well plates. Compounds were dissolved in DMSO at a concentration of 10 mM and diluted in DMSO using an automated pipetting instrument. Three-fold serially diluted compounds were directly added to the cells using an automated instrument. […] Seventy-two hours later, cells were lysed and Renilla luciferase activity were quantified as recommended by the manufacturer (Promega-Madison, Wis.). Non-linear regression was performed to calculate EC50 values.

[2] = test system: genotype 3a (S52) stable HCV replicon in Huh-7-derived cells; assay: Stable subgenomic HCV replicon EC50, genotype 3a (Renilla luciferase); settings: Hepatitis C virus, 72 h, read-out: EC50 3A RLUC
Description: as §1, §2, §3, §4

[3] = test system: genotype 1b (Con1) wild type transient HCV replicon in Huh-7-derived cells; assay: Transient-transfected HCV replicon EC50, genotype 1b wild type; settings: Hepatitis C virus, 72 h, read-out: EC50 1B WT
[4] = test system: genotype 1a NS3/4a protease inhibitor resistant variant R155K transient HCV replicon in Huh-7-derived cells; assay: Transient-transfected HCV replicon EC50, genotype 1a R155K; settings: Hepatitis C virus, 72 h, read-out: EC50 1A R155K, transient-transfected replicon genotype 1a R155K resistant variant, 72 h
[5] = test system: genotype 1b (Con1) stable HCV replicon in Huh-7-derived cells; assay: Stable subgenomic HCV replicon EC50, genotype 1b (Renilla luciferase); settings: Hepatitis C virus, stable replicon genotype 1b, 72 h, read-out: EC50 1B RLUC
Description: as §1, §2, §3, §4

[6] = test system: genotype 1a (H77) stable HCV replicon in Huh-7-derived cells; assay: Stable subgenomic HCV replicon EC50, genotype 1a (Renilla luciferase); settings: Hepatitis C virus, stable replicon genotype 1a, 72 h, read-out: EC50 1A RLUC
Description: as §1, §2, §3, §4

[7] = test system: genotype 1a (H77) wild type transient HCV replicon in Huh-7-derived cells; assay: Transient-transfected HCV replicon EC50, genotype 1a wild type; settings: Hepatitis C virus, 72 h, read-out: EC50 1A WT
[8] = test system: genotype 4a (ED43) stable HCV replicon in Huh-7-derived cells; assay: Stable subgenomic HCV replicon EC50, genotype 4a (Renilla luciferase); settings: Hepatitis C virus, 72 h, read-out: EC50 4A RLUC
Description: as §1, §2, §3, §4

[9] = test system: genotype 1b NS3/4a protease inhibitor resistant variant D168A transient HCV replicon in Huh-7-derived cells; assay: Transient-transfected HCV replicon EC50, genotype 1b D168A; settings: Hepatitis C virus, 72 h, read-out: EC50 1B D168A, transient-transfected replicon genotype 1b D168A resistant variant, 72 h
[10] = transient-transfected replicon genotype 1b wild type
[11] = transient-transfected replicon genotype 1a wild type

For `CC[C@@H]1[C@@H]2CN(C(=O)[C@H](C(C)(C)C)NC(=O)O[C@@H]3C[C@H]3CCCCCc3nc4ccc(OC)cc4nc3O2)[C@@H]1C(=O)N[C@]1(C(=O)NS(=O)(=O)C2CC2)C[C@H]1C(F)F` [Example 2, (1aR,5S,8S,9S,10R,22aR)-5-tert-butyl-N-[(1R,2R)-1-[(cyclopropylsulfonyl)carbamoyl]-2-(difluoromethyl)cyclopropyl]-9-ethyl-14-methoxy-3,6-dioxo-1,1a,3,4,5,6,9,10,18,19,20,21,22,22a-tetradecahydro-8H-7,10-methanocyclopropa[18,19][1,10,3,6]dioxadiazacyclononadecino[11,12-b]quinoxaline-8-carboxamide], the EC50 [1] was 3.9 nM, the EC50 [2] was 77 nM and the EC50 [3, 10] was 1 nM. For the same molecule, the EC50 [4] was 7 nM, the EC50 [5] was 3.1 nM and the EC50 [6] was 4 nM. The EC50 [7, 11] was 2.4 nM, the EC50 [8] was 2.7 nM and the EC50 [9] was 33 nM.
With `CC[C@@H]1[C@@H]2CN(C(=O)[C@H](C(C)(C)C)NC(=O)O[C@@H]3C[C@H]3CCCCCc3nc4ccc(OC)cc4nc3O2)[C@@H]1C(=O)N[C@]1(C(=O)NS(=O)(=O)C2CC2)C[C@H]1CC` [Example 3, (1aR,5S,8S,9S,10R,22aR)-5-tert-butyl-N-{(1R,2R)-1-[(cyclopropylsulfonyl)carbamoyl]-2-ethylcyclopropyl}-9-ethyl-14-methoxy-3,6-dioxo-1,1a,3,4,5,6,9,10,18,19,20,21,22,22a-tetradecahydro-8H-7,10-methanocyclopropa[18,19][1,10,3,6]dioxadiazacyclononadecino[11,12-b]quinoxaline-8-carboxamide] the EC50 [1] was 28 nM, the EC50 [2] was 546 nM and the EC50 [3, 10] was 3.5 nM. The EC50 [4] was 32 nM, the EC50 [5] was 9.8 nM and the EC50 [6] was 11.7 nM. The EC50 [7, 11] was 6.6 nM, the EC50 [8] was 10 nM and the EC50 [9] was 128 nM.
`CC[C@@H]1[C@@H]2CN(C(=O)[C@H](C(C)(C)C)NC(=O)O[C@@H]3CCC[C@H]3CCCCCc3nc4ccc(OC)cc4nc3O2)[C@@H]1C(=O)N[C@]1(C(=O)NS(=O)(=O)C2(C)CC2)C[C@H]1C(F)F` [Example 6, (3aR,7S,10S,11S,12R,24aR)-7-tert-butyl-N-[(1R,2R)-2-(difluoromethyl)-1-{[(1-methylcyclopropyl)sulfonyl]carbamoyl}cyclopropyl]-11-ethyl-16-methoxy-5,8-dioxo-1,2,3,3a,5,6,7,8,11,12,20,21,22,23,24,24a-hexadecahydro-10H-9,12-methanocyclopenta[18,19][1,10,3,6] dioxadiazacyclononadecino[11,12-b]quinoxaline-10-carboxamide] gave an EC50 [1] of 34 nM, an EC50 [2] of 1360 nM and an EC50 [3, 10] of 11 nM. The EC50 [4] was 58 nM, the EC50 [5] was 36 nM and the EC50 [6] was 35 nM. For the same molecule, the EC50 [7, 11] was 26 nM, the EC50 [8] was 34 nM and the EC50 [9] was 216 nM.
Work on `CC[C@@H]1[C@@H]2CN(C(=O)[C@H](C(C)(C)C)NC(=O)O[C@@]3(C)C[C@@H]3CCCCCc3nc4ccc(OC)cc4nc3O2)[C@@H]1C(=O)N[C@]1(C(=O)NS(=O)(=O)C2(C)CC2)C[C@H]1C(F)F` [Example 8, (1aS,5S,8S,9S,10R,22aS)-5-tert-butyl-N-[(1R,2R)-2-(difluoromethyl)-1-{[(1-methylcyclopropyl)sulfonyl]carbamoyl}cyclopropyl]-9-ethyl-14-methoxy-1a-methyl-3,6-dioxo-1,1a,3,4,5,6,9,10,18,19,20,21,22,22a-tetradecahydro-8H-7,10-methanocyclopropa[18,19][1,10,3,6] dioxadiazacyclononadecino[11,12-b]quinoxaline-8-carboxamide] yielded an EC50 [1] of 20 nM, an EC50 [2] of 465 nM and an EC50 [3, 10] of 4.8 nM. For the same molecule, the EC50 [4] was 28 nM, the EC50 [5] was 8.6 nM and the EC50 [6] was 16 nM. The EC50 [7, 11] was 8.8 nM, the EC50 [8] was 13 nM and the EC50 [9] was 89 nM.
`CC[C@@H]1[C@@H]2CN(C(=O)[C@H](C3CCCC3)NC(=O)O[C@@H]3C[C@H]3CCCCCc3nc4ccc(OC)cc4nc3O2)[C@@H]1C(=O)N[C@]1(C(=O)NS(=O)(=O)C2CC2)C[C@H]1C(F)F` [Example 15, (1aR,5S,8S,9S,10R,22aR)-5-cyclopentyl-N-[(1R,2R)-1-[(cyclopropylsulfonyl)carbamoyl]-2-(difluoromethyl)cyclopropyl]-9-ethyl-14-methoxy-3,6-dioxo-1,1a,3,4,5,6,9,10,18,19,20,21,22,22a-tetradecahydro-8H-7,10-methanocyclopropa[18,19][1,10,3,6]dioxadiazacyclononadecino[11,12-b]quinoxaline-8-carboxamide] gave an EC50 [1] of 9.8 nM, an EC50 [2] of 550 nM and an EC50 [3] of 3 nM. For the same molecule, the EC50 [4] was 20 nM, the EC50 [5] was 6.8 nM and the EC50 [6] was 11 nM. For the same molecule, the EC50 [7] was 6.5 nM, the EC50 [8] was 7.8 nM and the EC50 [9] was 182 nM.
In the case of `COc1ccc2nc3c(nc2c1)O[C@H]1CN(C(=O)[C@H](C(C)(C)C)NC(=O)O[C@@H]2C[C@H]2CCCCC3)[C@H](C(=O)N[C@]2(C(=O)NS(=O)(=O)C3CC3)C[C@H]2C(F)F)[C@@H]1C` [Example 19, (1aR,5S,8S,9S,10R,22aR)-5-tert-butyl-N-[(1R,2R)-1-[(cyclopropylsulfonyl)carbamoyl]-2-(difluoromethyl)cyclopropyl]-14-methoxy-9-methyl-3,6-dioxo-1,1a,3,4,5,6,9,10,18,19,20,21,22,22a-tetradecahydro-8H-7,10-methanocyclopropa[18,19][1,10,3,6]dioxadiazacyclononadecino[11,12-b]quinoxaline-8-carboxamide], the EC50 [1] is reported as 4.6 nM, the EC50 [2] is reported as 89 nM and the EC50 [3] is reported as 1.1 nM. The EC50 [4] was 3.4 nM, the EC50 [5] was 2.6 nM and the EC50 [6] was 4 nM. The EC50 [7] was 2.1 nM, the EC50 [8] was 3.1 nM and the EC50 [9] was 28 nM.
Work on `CC[C@@H]1C[C@]1(NC(=O)[C@@H]1[C@H](C)[C@@H]2CN1C(=O)[C@H](C(C)(C)C)NC(=O)O[C@@H]1C[C@H]1CCCCCc1nc3ccc(OC)cc3nc1O2)C(=O)NS(=O)(=O)C1CC1` [Example 20, (1aR,5S,8S,9S,9S,10R,22aR)-5-tert-butyl-N-{(1R,2R)-1-[(cyclopropylsulfonyl)carbamoyl]-2-ethylcyclopropyl}-14-methoxy-9-methyl-3,6-dioxo-1,1a,3,4,5,6,9,10,18,19,20,21,22,22a-tetradecahydro-8H-7,10-methanocyclopropa[18,19][1,10,3,6]dioxadiazacyclononadecino[11,12-b]quinoxaline-8-carboxamide] yielded an EC50 [1] of 19 nM, an EC50 [2] of 392 nM and an EC50 [3] of 2.7 nM. The EC50 [4] was 17 nM, the EC50 [5] was 5.2 nM and the EC50 [6] was 8.1 nM. The EC50 [7] was 3.4 nM, the EC50 [8] was 5.9 nM and the EC50 [9] was 90 nM.
In the case of `CC[C@@H]1C[C@]1(NC(=O)[C@@H]1[C@H](C)[C@@H]2CN1C(=O)[C@H](C(C)(C)C)NC(=O)O[C@@H]1C[C@H]1CCCCCc1nc3ccc(OC)cc3nc1O2)C(=O)NS(=O)(=O)C1(C)CC1` [Example 21, (1aR,5S,8S,9S,10R,22aR)-5-tert-butyl-N-[(1R,2R)-2-ethyl-1-{[(1-methylcyclopropyl)sulfonyl]carbamoyl}cyclopropyl]-14-methoxy-9-methyl-3,6-dioxo-1,1a,3,4,5,6,9,10,18,19,20,21,22,22a-tetradecahydro-8H-7,10-methanocyclopropa[18,19][1,10,3,6]dioxadiazacyclononadecino[11,12-b]quinoxaline-8-carboxamide], the EC50 [1] is reported as 12 nM, the EC50 [2] is reported as 263 nM and the EC50 [3] is reported as 3.8 nM. It also gave an EC50 [4] of 15 nM, an EC50 [5] of 4.7 nM and an EC50 [6] of 6.8 nM. The EC50 [7] was 4.1 nM, the EC50 [8] was 6.2 nM and the EC50 [9] was 70 nM.
